In patent publication US20060069132A1, “Azolecarboxamide herbicides” (priority 2004, published 2006):

How the values were obtained:
Surinam grass = test: Test B pre-/postemergence herbicide test; format: in vivo, Urochloa decumbens; settings: for Surinam Grass plant response rating: postemergence
Outline: (§1)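 Visual rating, 0 (no effect) to 100 (complete control), versus untreated controls after 13–15 d in greenhouse. Pre- and postemergence applications (postemergence plants 2–18 cm, 1–4 leaves); flooded paddy arm at 2-leaf stage. Compounds in non-phytotoxic solvent plus surfactant.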

cocklebur = test: Test B pre-/postemergence herbicide test; format: in vivo, Xanthium strumarium; settings: for Cocklebur plant response rating: postemergence
Outline: (§2)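 Response was scored visually 13 to 15 days after treatment against untreated greenhouse controls, 0 meaning no effect and 100 complete control. Formulations (solvent mixture plus surfactant) went onto soil after planting, onto foliage of 1- to 4-leaf plants, and onto 2-leaf plants in a flooded paddy set including rice and barnyardgrass.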

corn = test: Test B pre-/postemergence herbicide test; format: in vivo, Zea mays; settings: postemergence
Outline: as §1

large crabgrass = test: Test B pre-/postemergence herbicide test; format: in vivo, Digitaria sanguinalis; settings: for Crabgrass, Large plant response rating: postemergence
Outline: as §1

giant foxtail = test: Test B pre-/postemergence herbicide test; format: in vivo, Setaria faberi; settings: for Foxtail, Giant plant response rating: postemergence
Outline: as §1

lambsquarters = test: Test B pre-/postemergence herbicide test; format: in vivo, Chenopodium album; settings: for Lambsquarters plant response rating: postemergence
Outline: as §1

morningglory = test: Test B pre-/postemergence herbicide test; format: in vivo, Ipomoea coccinea; settings: for Morningglory plant response rating: postemergence
Outline: as §2

pigweed = test: Test B pre-/postemergence herbicide test; format: in vivo, Amaranthus retroflexus; settings: for Pigweed plant response rating: postemergence
Outline: as §1

velvetleaf = test: Test B pre-/postemergence herbicide test; format: in vivo, Abutilon theophrasti; settings: for Velvetleaf plant response rating: postemergence
Outline: as §1

blackgrass = test: Test B postemergence herbicide test; format: in vivo, Alopecurus myosuroides; settings: postemergence
Outline: (§3)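 Visual control ratings, 0–100 versus untreated controls, taken after 13 to 15 days in the greenhouse. Blackgrass received a postemergence spray at the 1- to 4-leaf stage (2–18 cm); ducksalad, umbrella sedge and barnyardgrass were flooded-paddy treated at 2 leaves.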

wheat = test: Test B postemergence herbicide test; format: in vivo, Triticum aestivum; set-up: key to Wheat plant response rating: 0 = no effect, 100 = complete control; settings: postemergence
Outline: (§4)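 Treated at 2-leaf (paddy) or 1–4-leaf, 2–18 cm (postemergence); greenhouse 13–15 d; visual score vs control, 0 none to 100 complete control; dash = not tested.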

wild oat = test: Test B postemergence herbicide test; format: in vivo, Avena fatua; settings: postemergence
Outline: as §4

rice = test: Test B flooded paddy test; format: in vivo, Oryza sativa; settings: 1000 g ai/ha, scale 0 to 100 (0 no effect, 100 complete control)
Outline: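 Read-out: visual comparison with controls, scored 0 to 100, where 100 means complete control and 0 no effect. Formulated chemicals were applied postemergence to plants 2–18 cm tall (1- to 4-leaf), or to flooded-paddy plants at the 2-leaf stage, then held 13 to 15 days under glass.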

[1] = tested on: small flower umbrella sedge; test: Test B flooded paddy test; format: in vivo, Cyperus difformis; settings: 1000 g ai/ha, scale 0 to 100 (0 no effect, 100 complete control)
Outline: as §3

barnyardgrass = test: Test B flooded paddy test; format: in vivo, Echinochloa crus-galli; settings: 1000 g ai/ha, scale 0 to 100 (0 no effect, 100 complete control)
Outline: as §3

[2] = 125 g ai/ha, 0 is no effect, 100 is complete control, preemergence
[3] = 125 g ai/ha, visual rating, scale 0 (no effect) to 100 (complete control)
[4] = 500 g ai/ha, visual rating, 0 = no effect, 100 = complete control, preemergence
[5] = 500 g ai/ha, scale 0 to 100, 0 is no effect, 100 is complete control

SMILES: CCC1=NN(C(C)(C)C)CC1C(=O)Nc1cc(C(=O)N2CCCC2)ccc1F (racemic) [Compound 341]
- Plant response rating (0 to 100 scale), Surinam Grass (Surinam grass; [2]): 100
- Surinam Grass plant response rating (Surinam grass; [3]): 10
- Plant response rating, Surinam Grass (Surinam grass; [4]): 100
- Surinam Grass plant response rating (Surinam grass; [5]): 20
- Plant response rating (0 to 100 scale), Cocklebur (cocklebur; [2]): 40
- Cocklebur plant response rating (cocklebur; [3]): 10
- Plant response rating, Cocklebur (cocklebur; [4]): 100
- Cocklebur plant response rating (cocklebur; [5]): 20
- Corn plant response rating (corn; [3]): 0
- Corn plant response rating (corn; [5]): 10
- Plant response rating (0 to 100 scale), Crabgrass, Large (large crabgrass; [2]): 90
- Crabgrass, Large plant response rating (large crabgrass; [3]): 10
- Plant response rating, Crabgrass, Large (large crabgrass; [4]): 100
- Crabgrass, Large plant response rating (large crabgrass; [5]): 20
- Plant response rating (0 to 100 scale), Foxtail, Giant (giant foxtail; [2]): 50
- Foxtail, Giant plant response rating (giant foxtail; [3]): 30
- Plant response rating, Foxtail, Giant (giant foxtail; [4]): 90
- Foxtail, Giant plant response rating (giant foxtail; [5]): 30
- Plant response rating (0 to 100 scale), Lambsquarters (lambsquarters; [2]): 100
- Lambsquarters plant response rating (lambsquarters; [3]): 30
- Plant response rating, Lambsquarters (lambsquarters; [4]): 100
- Lambsquarters plant response rating (lambsquarters; [5]): 100
- Morningglory plant response rating (morningglory; [3]): 20
- Plant response rating, Morningglory (morningglory; [4]): 30
- Morningglory plant response rating (morningglory; [5]): 40
- Plant response rating (0 to 100 scale), Pigweed (pigweed; [2]): 90
- Pigweed plant response rating (pigweed; [3]): 30
- Plant response rating, Pigweed (pigweed; [4]): 100
- Pigweed plant response rating (pigweed; [5]): 60
- Plant response rating (0 to 100 scale), Velvetleaf (velvetleaf; [2]): 60
- Velvetleaf plant response rating (velvetleaf; [3]): 20
- Velvetleaf plant response rating (velvetleaf; [5]): 30
- Blackgrass plant response rating (blackgrass; [3]): 10
- Blackgrass plant response rating (blackgrass; [5]): 20
- Wheat plant response rating (wheat; [3]): 10
- Wheat plant response rating (wheat; [5]): 20
- Oat, Wild plant response rating (wild oat; [3]): 0
- Oat, Wild plant response rating (wild oat; [5]): 30
- Rice plant response rating (rice): 70
- Sedge, Umbrella plant response rating [1]: 80
- Barnyardgrass plant response rating (barnyardgrass): 90
